How the values were obtained:
[1] = tested on: Aphidius rhopalosiphi; experiment: LR50; higher = less toxic; details: acute; duration: 48 hours; mortality
[2] = tested on: Typhlodromus pyri; experiment: LR50; higher = less toxic; details: chronic/long-term; duration: 14 days; mortality
[3] = tested on: Bibionidae; details: chronic/long-term; duration: 28 days; other
[4] = tested on: Oncorhynchus mykiss; details: acute; duration: 96 hours; mortality
[5] = tested on: Oryctolagus sp.; details: reproduction developmental
[6] = tested on: Apis mellifera; details: acute, duration: 48 hours, mortality
[7] = tested on: Daphnia magna; details: chronic/long-term; duration: 21 days; reproduction
[8] = tested on: Tagia sp.
[9] = tested on: Rattus norvegicus; details: acute; oral; mortality
[10] = tested on: Cyprinodon variegatus; details: chronic/long-term; duration: 28 days; time to hatch
[11] = tested on: Colinus virginianus; details: for LD50: acute, oral, mortality

For `Nc1cc(Cl)nc(C(=O)O)c1Cl` [4-Amino-3,6-dichloro-2-pyridinecarboxylic acid], the LR50 [1] was > 60 g/ha, the LR50 [2] was > 60 g/ha and the NOEC [3] was 130 mg/L. For the same compound, the LC50 [4] was > 100 µg/mL, the NOAEL ([5]; clinical signs) was 26 mg/kg-day and the NOAEL ([5]; no effects) was 256 mg/kg-day. The LD50 ([6]; dermal) was > 100 µg/piece, the LD50 ([6]; oral, unspecified) was > 120 µg/piece and the NOEC [7] was 100 mg/L. For the same compound, the LC50 ([8]; acute, duration: 14 days, mortality) was > 1000 mg/kg, the NOEC ([8]; chronic/long-term, duration: 8 weeks) was 3.2 mg/kg and the LD50 [9] was > 5000 mg/kg-day. The NOEC [10] was 0.1 mg/L, the LD50 ([11]; diet) was > 1460 mg/kg-day and the LD50 [11] was > 2250 mg/kg-day. For the same compound, the NOEL ([11]; reproduction developmental, reproduction) was 190 mg/kg-day.

Source: EPA's ToxValDB 9.5 (doi:10.2903/j.efsa.2013.3352)
